Laboratory results taken from patent US7858635B2 (priority 2005, dated 2010).

Assays:
M4 muscarinic receptor = target: T1, M4 muscarinic receptor (Homo sapiens, UniProt P08173); assay: Functional mobilization of intracellular calcium (FLIPR, Fluo-3), M4-CHO cells; assay type: cell-based; settings: compound nos. 1-454; for Emax: read-out: M4 Efficacy
T1 construct: expressed in transfected cells; host or cells: CHO cells (M4-CHO, under puromycin, zeocin and blasticidin selection)
T1 sequence (P08173 1-479): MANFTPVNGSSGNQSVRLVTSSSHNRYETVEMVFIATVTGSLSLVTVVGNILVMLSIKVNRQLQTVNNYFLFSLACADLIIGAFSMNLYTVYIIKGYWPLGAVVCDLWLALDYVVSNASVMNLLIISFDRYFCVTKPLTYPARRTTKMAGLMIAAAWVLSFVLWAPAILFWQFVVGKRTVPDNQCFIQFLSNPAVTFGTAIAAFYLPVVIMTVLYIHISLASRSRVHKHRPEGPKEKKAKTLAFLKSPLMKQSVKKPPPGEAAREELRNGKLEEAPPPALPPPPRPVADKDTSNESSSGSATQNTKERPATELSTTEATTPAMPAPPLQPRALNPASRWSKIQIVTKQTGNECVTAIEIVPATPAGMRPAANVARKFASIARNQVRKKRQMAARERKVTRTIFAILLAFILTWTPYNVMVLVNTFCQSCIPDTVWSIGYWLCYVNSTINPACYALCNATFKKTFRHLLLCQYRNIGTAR
Summary of the method: (§1)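 Intracellular calcium was tracked by fluorescence (488/540 nm) over 60 sec after compound addition to dye-loaded CHO cells expressing the receptor. Inhibitory activity used a 15 min pre-incubation before carbachol at the subtype EC80.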

M1 muscarinic receptor = target: T2, M1 muscarinic receptor (Homo sapiens, UniProt P11229); assay: Functional mobilization of intracellular calcium (FLIPR, Fluo-3), M1-CHO cells; assay type: cell-based; settings: compound nos. 1-454; for Emax: read-out: M1 Efficacy
T2 construct: expressed in transfected cells; host or cells: CHO cells (M1-CHO, under zeocin and G418 selection)
T2 sequence (P11229 1-460): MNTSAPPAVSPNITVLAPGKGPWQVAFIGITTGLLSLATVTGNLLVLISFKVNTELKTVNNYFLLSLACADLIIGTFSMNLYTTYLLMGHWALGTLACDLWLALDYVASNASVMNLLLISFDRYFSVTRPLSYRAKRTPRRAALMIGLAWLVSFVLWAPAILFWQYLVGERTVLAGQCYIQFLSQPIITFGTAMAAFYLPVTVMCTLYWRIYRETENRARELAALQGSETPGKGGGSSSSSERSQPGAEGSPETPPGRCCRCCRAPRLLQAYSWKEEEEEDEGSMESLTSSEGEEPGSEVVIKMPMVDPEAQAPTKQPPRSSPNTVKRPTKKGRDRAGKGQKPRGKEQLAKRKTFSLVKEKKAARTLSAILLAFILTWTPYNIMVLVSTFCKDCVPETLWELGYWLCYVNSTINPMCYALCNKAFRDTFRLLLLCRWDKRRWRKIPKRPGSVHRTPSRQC
Summary of the method: as §1

[1] = 100% efficacy is the maximum response obtained with the Carbachol control
[2] = M4-CHO cells, calcium mobilization
[3] = M1-CHO cells, calcium mobilization

Compound: Cc1ccc2c(c1)C1(CCN(C3CC4CCC3C4)CC1)CN2 (centres unmarked) [compound 350]
- Emax (M4 muscarinic receptor; [1]): > 70%
- M4 Activity (M4 muscarinic receptor; [2]): +++ (activity was measured to be less than or equal to 0.1 μM)
- Emax (M1 muscarinic receptor; [1]): > 85%
- M1 Activity (M1 muscarinic receptor; [3]): +++ (activity was measured to be less than or equal to 0.7 μM)

Compound: COC(=O)N1CC2(CCN(C3CC4CCC(C3)N4C(=O)O[C@H]3CCOC3)CC2)c2cc(F)ccc21 (some centres unmarked) [compound 96]
- Emax (M4 muscarinic receptor; [1]): < 55%
- M4 Activity (M4 muscarinic receptor; [2]): + (activity was measured to be greater than or equal to 4.0 μM)
- Emax (M1 muscarinic receptor; [1]): 65 to 85%
- M1 Activity (M1 muscarinic receptor; [3]): ++ (activity was measured to be between 0.7 μM and 3.0 μM)

Compound: O=C(O[C@@H]1CCOC1)N1C2CCC1CC(N1CCC3(CC1)COc1ccc(F)cc13)C2 (some centres unmarked) [compound 338]
- Emax (M4 muscarinic receptor; [1]): < 55%
- M4 Activity (M4 muscarinic receptor; [2]): + (activity was measured to be greater than or equal to 4.0 μM)
- Emax (M1 muscarinic receptor; [1]): < 65%
- M1 Activity (M1 muscarinic receptor; [3]): + (activity was measured to be greater than or equal to 3.0 μM)

Compound: CCCOC(=O)N1C2CCC1CC(N1CCC3(CC1)CN(C(=O)O[C@@H]1CCOC1)c1ccc(F)cc13)C2 (some centres unmarked) [compound 297]
- M4 Efficacy (M4 muscarinic receptor; [1]): ++ (efficacy was calculated to be between 70% and 55%)
- M4 Activity (M4 muscarinic receptor; [2]): + (activity was measured to be greater than or equal to 4.0 μM)
- M1 Efficacy (M1 muscarinic receptor; [1]): ++ (efficacy was calculated to be between 85% and 65%)
- M1 Activity (M1 muscarinic receptor; [3]): + (activity was measured to be greater than or equal to 3.0 μM)

Compound: Clc1ccc2c(c1)C1(CCO2)CCN(CC2CC3C=C[C@H]2C3)CC1 (stereo in doubt) [compound 64, 1′-((1R,2R,4R)-bicyclo[2.2.1]hept-5-en-2-ylmethyl)-6-chlorospiro[chroman-4,4′-piperidine]]
- Emax (M4 muscarinic receptor; [1]): < 55%
- M4 Activity (M4 muscarinic receptor; [2]): ++ (activity was measured to be between 0.1 μM and 4.0 μM)
- Emax (M1 muscarinic receptor; [1]): < 65%
- M1 Activity (M1 muscarinic receptor; [3]): +++ (activity was measured to be less than or equal to 0.7 μM)

Compound: Cc1ccc2c(c1)C1(CCN([C@@H]3C[C@@H]4CC[C@@H]3C4)CC1)CN2 [compound 264]
- Emax (M4 muscarinic receptor; [1]): < 55%
- M4 Activity (M4 muscarinic receptor; [2]): + (activity was measured to be greater than or equal to 4.0 μM)
- Emax (M1 muscarinic receptor; [1]): < 65%
- M1 Activity (M1 muscarinic receptor; [3]): + (activity was measured to be greater than or equal to 3.0 μM)

Compound: CN(C)C(=O)N1C2CCC1CC(N1CCC3(CC1)COc1ccc(F)cc13)C2 (centres unmarked) [compound 203]
- Emax (M4 muscarinic receptor; [1]): < 55%
- M4 Activity (M4 muscarinic receptor; [2]): ++ (activity was measured to be between 0.1 μM and 4.0 μM)
- Emax (M1 muscarinic receptor; [1]): 65 to 85%
- M1 Activity (M1 muscarinic receptor; [3]): +++ (activity was measured to be less than or equal to 0.7 μM)

Compound: CCOC(=O)N1C2CCC1CC(N1CCC3(CC1)CN(C(C)=O)c1ccc(F)cc13)C2 (centres unmarked) [compound 371]
- Emax (M4 muscarinic receptor; [1]): > 70%
- M4 Activity (M4 muscarinic receptor; [2]): + (activity was measured to be greater than or equal to 4.0 μM)
- Emax (M1 muscarinic receptor; [1]): 65 to 85%
- M1 Activity (M1 muscarinic receptor; [3]): +++ (activity was measured to be less than or equal to 0.7 μM)

Compound: Cc1ccc2c(c1)C1(CCN(C3CC4CCC3C4)CC1)CN2C(=O)OC(C)(C)C (centres unmarked) [compound 116]
- Emax (M4 muscarinic receptor; [1]): < 55%
- M4 Activity (M4 muscarinic receptor; [2]): ++ (activity was measured to be between 0.1 μM and 4.0 μM)
- Emax (M1 muscarinic receptor; [1]): 65 to 85%
- M1 Activity (M1 muscarinic receptor; [3]): +++ (activity was measured to be less than or equal to 0.7 μM)

Compound: COC(=O)N1C2CCC1CC(N1CCC3(CC1)COc1ccc(F)cc13)C2 (centres unmarked) [compound 156]
- Emax (M4 muscarinic receptor; [1]): > 70%
- M4 Activity (M4 muscarinic receptor; [2]): +++ (activity was measured to be less than or equal to 0.1 μM)
- Emax (M1 muscarinic receptor; [1]): 65 to 85%
- M1 Activity (M1 muscarinic receptor; [3]): +++ (activity was measured to be less than or equal to 0.7 μM)

Compound: CCOC(=O)N1C2CCC1CC(N1CCC3(CC1)CN(C(C)=O)c1c(F)cccc13)C2 (centres unmarked) [compound 322]
- Emax (M4 muscarinic receptor; [1]): > 70%
- M4 Activity (M4 muscarinic receptor; [2]): +++ (activity was measured to be less than or equal to 0.1 μM)
- Emax (M1 muscarinic receptor; [1]): < 65%
- M1 Activity (M1 muscarinic receptor; [3]): ++ (activity was measured to be between 0.7 μM and 3.0 μM)

Compound: CC(=O)N1CC2(CCN(CC3CCOC3)CC2)c2cc(F)ccc21 (centres unmarked) [compound 135]
- Emax (M4 muscarinic receptor; [1]): > 70%
- M4 Activity (M4 muscarinic receptor; [2]): ++ (activity was measured to be between 0.1 μM and 4.0 μM)
- Emax (M1 muscarinic receptor; [1]): > 85%
- M1 Activity (M1 muscarinic receptor; [3]): +++ (activity was measured to be less than or equal to 0.7 μM)

Compound: CC(=O)N1CC2(CCN(C3CCC[C@@H](C)C3)CC2)c2cc(F)ccc21 (some centres unmarked) [compound 240]
- Emax (M4 muscarinic receptor; [1]): > 70%
- M4 Activity (M4 muscarinic receptor; [2]): + (activity was measured to be greater than or equal to 4.0 μM)
- Emax (M1 muscarinic receptor; [1]): 65 to 85%
- M1 Activity (M1 muscarinic receptor; [3]): ++ (activity was measured to be between 0.7 μM and 3.0 μM)

Compound: Fc1ccc2c(c1)C1(CCN(C[C@H]3C[C@H]4C=C[C@H]3C4)CC1)CO2 [compound 376]
- M4 Activity (M4 muscarinic receptor): + (activity was measured to be greater than or equal to 4.0 μM)
- Emax (M4 muscarinic receptor; [1]): 55 to 70%
- M1 Activity (M1 muscarinic receptor): +++ (activity was measured to be less than or equal to 0.7 μM)
- Emax (M1 muscarinic receptor; [1]): 65 to 85%

Compound: C#CCOC(=O)N1CCC(CN2CCC3(CC2)CN(C(C)=O)c2ccc(F)cc23)CC1 [compound 316]
- Emax (M4 muscarinic receptor; [1]): < 55%
- M4 Activity (M4 muscarinic receptor; [2]): + (activity was measured to be greater than or equal to 4.0 μM)
- Emax (M1 muscarinic receptor; [1]): < 65%
- M1 Activity (M1 muscarinic receptor; [3]): + (activity was measured to be greater than or equal to 3.0 μM)

Compound: CC(=O)N[C@H]1CC2(CCN([C@@H]3C[C@@H]4CC[C@@H]3C4)CC2)c2ccccc21 [compound 158]
- Emax (M4 muscarinic receptor; [1]): > 70%
- M4 Activity (M4 muscarinic receptor; [2]): + (activity was measured to be greater than or equal to 4.0 μM)
- Emax (M1 muscarinic receptor; [1]): > 85%
- M1 Activity (M1 muscarinic receptor; [3]): +++ (activity was measured to be less than or equal to 0.7 μM)

Compound: CCOC(=O)N1C2CCC1CC(N1CCC3(CC1)CN(C(=O)C1CC1)c1ccc(F)cc13)C2 (centres unmarked) [compound 214]
- Emax (M4 muscarinic receptor; [1]): < 55%
- M4 Activity (M4 muscarinic receptor; [2]): + (activity was measured to be greater than or equal to 4.0 μM)
- Emax (M1 muscarinic receptor; [1]): < 65%
- M1 Activity (M1 muscarinic receptor; [3]): + (activity was measured to be greater than or equal to 3.0 μM)

Compound: CCOC(=O)N1C2CCC1CC(N1CCC3(CC1)CNc1ccccc13)C2 (centres unmarked) [compound 153]
- Emax (M4 muscarinic receptor; [1]): > 70%
- M4 Activity (M4 muscarinic receptor; [2]): +++ (activity was measured to be less than or equal to 0.1 μM)
- Emax (M1 muscarinic receptor; [1]): > 85%
- M1 Activity (M1 muscarinic receptor; [3]): +++ (activity was measured to be less than or equal to 0.7 μM)

Compound: O=C(C1CCC1)N1C2CCC1CC(N1CCC3(CC1)COc1ccc(F)cc13)C2 (centres unmarked) [compound 134]
- Emax (M4 muscarinic receptor; [1]): < 55%
- M4 Activity (M4 muscarinic receptor; [2]): ++ (activity was measured to be between 0.1 μM and 4.0 μM)
- Emax (M1 muscarinic receptor; [1]): > 85%
- M1 Activity (M1 muscarinic receptor; [3]): +++ (activity was measured to be less than or equal to 0.7 μM)

Compound: CCCOC(=O)N1C2CCC1CC(N1CCC3(CC1)CN(C(=O)OCCOC)c1ccc(F)cc13)C2 (centres unmarked) [compound 405]
- M4 Activity (M4 muscarinic receptor): + (activity was measured to be greater than or equal to 4.0 μM)
- Emax (M4 muscarinic receptor; [1]): < 55%
- M1 Activity (M1 muscarinic receptor): ++ (activity was measured to be between 0.7 μM and 3.0 μM)
- Emax (M1 muscarinic receptor; [1]): < 65%

Compound: O=C(O[C@H]1CCOC1)N1C2CCC1CC(N1CCC3(CCc4ccccc43)CC1)C2 (some centres unmarked) [compound 355]
- Emax (M4 muscarinic receptor; [1]): 55 to 70%
- M4 Activity (M4 muscarinic receptor; [2]): ++ (activity was measured to be between 0.1 μM and 4.0 μM)
- Emax (M1 muscarinic receptor; [1]): 65 to 85%
- M1 Activity (M1 muscarinic receptor; [3]): ++ (activity was measured to be between 0.7 μM and 3.0 μM)

Compound: CCCOC(=O)N1C2CCC1CC(N1CCC3(CC1)CN(C(=O)OC1CCC1)c1ccc(F)cc13)C2 (centres unmarked) [compound 329]
- Emax (M4 muscarinic receptor; [1]): < 55%
- M4 Activity (M4 muscarinic receptor; [2]): + (activity was measured to be greater than or equal to 4.0 μM)
- Emax (M1 muscarinic receptor; [1]): 65 to 85%
- M1 Activity (M1 muscarinic receptor; [3]): +++ (activity was measured to be less than or equal to 0.7 μM)

Compound: CCOC(=O)N1CCC(N2CCC3(CC2)CN(C(=O)OCC(C)(C)C)c2ccc(F)cc23)CC1 [compound 63]
- Emax (M4 muscarinic receptor; [1]): < 55%
- M4 Activity (M4 muscarinic receptor; [2]): + (activity was measured to be greater than or equal to 4.0 μM)
- Emax (M1 muscarinic receptor; [1]): < 65%
- M1 Activity (M1 muscarinic receptor; [3]): +++ (activity was measured to be less than or equal to 0.7 μM)
